Consider one compound from US20220079953A1, “METHODS FOR MANAGEMENT OF WEIGHT” (The University of Sydney, priority 2018, published 2022).

Experiment [1] is described as follows: Extinction of food reward-associated lever pressing in food restricted rats. The note with it: all doses tested (5, 10, 20 mg/kg p.o.), 30 min before session. In kind it is in vivo, Long-Evans rats. The method, then: Adult male Long-Evans rats were allowed to feed freely until they reached a target weight of 320-340 g. Rats were then maintained at this weight by restricting feeding. Once target weight had been reached, each rat was placed in an operant test chamber and was trained to press the right lever to receive a 45 mg food pellet under an FR1 schedule of reinforcement during daily 15 min sessions.
Once stable responding (right-side lever pressing+/−10% of the mean of the previous three sessions) had been established, drug testing commenced. Rats were pre-treated with SOC-1 (0, 5, 10, 20 mg/kg) administered by oral gavage (p.o.) 30 min prior to the start of the session.

The nature of experiment [2]: Sucrose self-administration under FR5 schedule. The note with it: 10% sucrose; for active lever presses / number of sucrose rewards received: 15 min before session, p<0.001. In kind it is in vivo, Sprague Dawley rats. The source says:
This model induces high levels of sucrose consumption and sucrose seeking in rats, akin to the unhealthy high sugar diets that are a major determinant of obesity. Excessive consumption of sugar-sweetened beverages are especially associated with increased risk of obesity and type 2 diabetes. Thus, the model chosen here is particularly well suited as it involves escalating voluntary consumption of high-sucrose solution by rats, providing both face and construct validity.
Male Sprague Dawley rats were water deprived for 19.5 hours before the start of sucrose self-administration. Water deprivation continued for the first five days of self-administration. Initially, rats were trained during daily 30 minute FR-1 scheduled sessions to lever press for sucrose (10%). Stable responding under the FR-1 schedule was achieved within 10 days. Rats were then transferred to an FR2 and FR3 schedule for a minimum of three days, and then an FR5 schedule until lever pressing stabilised. Subsequently SOC-1 testing began. Each test day was separated by 2-3 FR-5 scheduled sessions. Rats received SOC-1 in an ascending dose sequence (0, 5, and 10 mg/kg, ip), which was administered 15 minutes prior to the test session. On the final test session, rats received a vehicle injection to ensure rats continued to self-administer sucrose at high levels when not receiving treatment with SOC-1.

The nature of experiment [3]: Progressive ratio consumption of a high-sugar high-fat food (M&Ms) by non-human primates. In kind it is in vivo, rhesus monkeys. The note with it: for trend of breakpoint with increasing doses: 0, 1, 2, 3 mg/kg IM. The source says:
Individuals who are overweight or obese frequently report intense cravings for, and motivation to, consume food. Here we model the motivational aspects that can drive excessive food-seeking and consumption, which can lead to overweight and obesity by studying rhesus monkeys who must respond under a progressive ratio to receive M&Ms (which are high in both fat and sugar). A progressive ratio requires subjects to work increasingly harder to obtain reinforcement, modelling the intense motivation and craving characteristic of excessive food-seeking and consumption in individuals who are obese, overweight or at risk of being overweight.
Five female rhesus monkeys were trained to press a lever to self-administer M&Ms. Under a progressive ratio, subjects responded for a reinforcer of either 1 or 5 M&Ms. The ratio began at either 25 (two subjects) or 50 (three subjects) responses per reinforcement and increased by 40% after each reinforcer delivery. SOC-1 was administered IM using a within-subjects design whereby all monkeys received doses of 0, 1, 2 and 3 mg/kg SOC-1. One dose per subject was administered prior to each progressive ratio test session. Breakpoint refers to the number of times the monkeys would press the lever to receive a single reinforcer before giving up.

Experiment [4] is described as follows: Inhibition of weight gain in rats. In kind it is in vivo, Sprague Dawley rats. As to conditions: 30 mg/kg oral gavage once daily for 10 days; ad libitum standard chow. The method, then:
20 adult male Sprague Dawley rats were given ad libitum access to standard rat chow in their home cage over the course of the experiment. Rats were divided into four equally sized groups and were treated once daily with either 0, 5, 10 or 30 mg/kg SOC-1 via oral gavage for 10 days. Body weights were recorded daily.

A short description of experiment [5]: Reinstatement of sucrose-seeking. In kind it is in vivo, Sprague Dawley rats. As to conditions: for reinstatement of sucrose seeking: 15 min before session, p<0.001 vs 0 mg/kg reinstatement. An excerpt: Sugar is a highly palatable food component. This contributes greatly to the maintenance of the high sugar diets that can lead to obesity. Once a healthier diet has been established, including cessation of consumption of high sugar foods, it can be difficult for individuals to maintain that healthier diet. Specifically, after a period of not consuming the high sugar foods individuals can again start seeking out and consuming those foods. Here we model this resumption of high-sugar diet consumption using a rat model of reinstatement of sucrose self-administration to assess whether SOC-1 might reduce motivation to resume consumption of high-sugar foods.
Male Sprague Dawley rats were water deprived for 19.5 hours before the start of sucrose self-administration. Water deprivation continued for the first five days of self-administration. Rats were allowed to acquire self-administration of sucrose (10%) during 30-minute FR-1 scheduled sessions for 20 days. Following this, rats were exposed to daily 30-minute extinction sessions. Rats met the extinction criteria (minimum of 10 days and less than 15 active lever presses per session for 2 consecutive days) after 10 sessions. Once the extinction criteria were met, rats underwent reinstatement testing. Each reinstatement test session was separated by two extinction days. Prior to each reinstatement session, rats received an injection of vehicle or SOC-1. Fifteen minutes later, they were placed in the testing chamber, where they had access to 0.3 ml sucrose, which they could lever press for. Rats received SOC-1 in an ascending dose sequence (0, 5, 10 mg/kg, ip). On the reinstatement session subsequent to SOC-1 dose testing, an additional vehicle session was conducted to ensure that rats continued to reinstate to sucrose-seeking behaviour when no treatment was given.

Consider `Cn1ncc2c1Nc1ccccc1NC2` [SOC-1], for which the “non-reinforced responding for a food pellet” value in experiment [1] is recorded as “significantly reduced”. For the same compound, the active lever presses result in experiment [2] (5 mg/kg ip) and in experiment [2] (10 mg/kg ip) was “significantly decreased” in each case. The “number of sucrose rewards received” value in experiment [2] (5 mg/kg ip) and in experiment [2] (10 mg/kg ip) was “significantly decreased” each time. Also, the inactive lever presses result in experiment [2] (5 and 10 mg/kg ip) is reported as “no significant effect”; in experiment [5] (reinstatement sessions, any dose (5, 10 mg/kg ip)), “no significant effect”. The “trend of breakpoint with increasing doses” value in experiment [3] (reinforcement 1 M&M, trend analysis p=0.012) is given as “significant linear decrease in breakpoint”; in experiment [3] (reinforcement 5 M&Ms, trend analysis p=0.025), “significant linear decrease in breakpoint”. In addition, the “breakpoint (lever presses for a single reinforcer before giving up)” value was “significantly reduced the breakpoint” in experiment [3] (reinforcement 1 M&M, 2 mg/kg IM, p=0.015 vs 0 mg/kg); “significantly reduced the breakpoint” in experiment [3] (reinforcement 1 M&M, 3 mg/kg IM, p=0.014 vs 0 mg/kg); “significantly reduced the breakpoint” in experiment [3] (reinforcement 5 M&Ms, 3 mg/kg IM, p=0.021 vs 0 mg/kg). In addition, the “weight gain over the 10 treatment days” value in experiment [4] was “significantly inhibited weight gain”. Also, the “reinstatement of sucrose seeking” value in experiment [5] (5 mg/kg ip) and in experiment [5] (10 mg/kg ip) was “completely prevented reinstatement” each time.
